Values joined by “and” are separate entries in the source; they are usually repeats but may differ in a detail not shown here. Equal entries are not always repeated. Toxic doses and inconclusive results are not listed.
System: P388 leukemia ip, CD2F1 mice, survival T/C
Assay: NCI In Vivo Anticancer Drug Screen. Data for tumor model P388 Leukemia (intraperitoneal) in CD2F1 (CDF1) mice
Conditions: endpoint: median survival time, higher = longer survival
Method in brief: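 Mice carrying the transplanted tumor received test compound or vehicle. Survival was recorded in each group, and the value is the treated-group measurement divided by that of the vehicle-treated control group.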

[1] = dose: 50.0 mg/kg/injection, schedule: Q01DX005 (ip), vehicle: saline with Tween-80
[2] = dose: 100.0 mg/kg/injection, schedule: Q01DX005 (ip), vehicle: saline with Tween-80
[3] = dose: 200.0 mg/kg/injection, schedule: Q01DX005 (ip), vehicle: saline with Tween-80
[4] = dose: 50.0 mg/kg/injection, schedule: Q01DX009 (ip), vehicle: saline
[5] = dose: 100.0 mg/kg/injection, schedule: Q01DX009 (ip), vehicle: saline
[6] = dose: 200.0 mg/kg/injection, schedule: Q01DX009 (ip), vehicle: saline
[7] = dose: 60.0 mg/kg/injection, schedule: Q01DX005 (ip), vehicle: saline with Tween-80
[8] = dose: 120.0 mg/kg/injection, schedule: Q01DX005 (ip), vehicle: saline with Tween-80
[9] = dose: 240.0 mg/kg/injection, schedule: Q01DX005 (ip), vehicle: saline with Tween-80
[10] = dose: 100.0 mg/kg/injection, schedule: Q01DX009 (ip), vehicle: saline with Tween-80

In the case of `O=c1[nH]c(=O)c2cc3cn[nH]c3cc2[nH]1`, the T/C [1] is reported as 92 % of control, the T/C [2] is reported as 89 % of control and the T/C [3] is reported as 101 % of control.
For `CC(=O)NC1=CC(=O)c2[nH]c(=O)[nH]c(=O)c2C1=O`, the T/C (dose: 3.0 mg/kg/injection, schedule: Q01DX005 (ip), vehicle: other) was 99 % of control, the T/C (dose: 6.0 mg/kg/injection, schedule: Q01DX005 (ip), vehicle: other) was 98 % of control and the T/C (dose: 12.0 mg/kg/injection, schedule: Q01DX005 (ip), vehicle: other) was 100 % of control.
`COCCCN=C(N)N` was tested, and the T/C (dose: 50.0 mg/kg/injection, schedule: Q04DX003 (ip), vehicle: saline) was 109 % of control, the T/C (dose: 100.0 mg/kg/injection, schedule: Q04DX003 (ip), vehicle: saline) was 100 % of control and the T/C (dose: 200.0 mg/kg/injection, schedule: Q04DX003 (ip), vehicle: saline) was 95 % of control.
In the case of `CO/N=C1\CC(C)N2C(=O)C(C(C)C)NC(=O)C(NC(=O)c3c4nc5c(C(=O)NC6C(=O)NC(C(C)C)C(=O)N7C(C)CC(O)C7C(=O)N(C)CC(=O)N(C)C(C(C)C)C(=O)OC6C)ccc(C)c5oc-4c(C)c(=O)c3N)C(CO)OC(=O)C(C)N(C)C(=O)CN(C)C(=O)C12` (stereo not drawn), the T/C (dose: 12.5 mg/kg/injection, schedule: Q01DX005 (ip), vehicle: saline with Tween-80) is reported as 161 % of control and the T/C (dose: 25.0 mg/kg/injection, schedule: Q01DX005 (ip), vehicle: saline with Tween-80) is reported as 180 % of control.
With `CN1C(=O)Cn2c(nn(CCN3CCOCC3)c(=O)c2=O)-c2cc(Cl)ccc21` the T/C [4] was 99 % of control, the T/C [5] was 102 % of control and the T/C [6] was 105 % of control.
`CC(=O)CC(C)=O.CCN(CC)CC[C-]=O.[Pd+2]` was tested, and the T/C (dose: 0.78 mg/kg/injection, schedule: Q04DX003 (ip), vehicle: propolene glycol) was 97 % of control, the T/C (dose: 1.56 mg/kg/injection, schedule: Q04DX003 (ip), vehicle: propolene glycol) was 95 % of control and the T/C (dose: 3.13 mg/kg/injection, schedule: Q04DX003 (ip), vehicle: propolene glycol) was 97 % of control. For the same compound, the T/C (dose: 6.25 mg/kg/injection, schedule: Q04DX003 (ip), vehicle: propolene glycol) was 96 % of control, the T/C (dose: 12.5 mg/kg/injection, schedule: Q04DX003 (ip), vehicle: other) was 123 % of control and the T/C (dose: 12.5 mg/kg/injection, schedule: Q04DX003 (ip), vehicle: propolene glycol) was 91 % of control. For the same compound, the T/C (dose: 25.0 mg/kg/injection, schedule: Q04DX003 (ip), vehicle: other) was 120 % of control.
For `N#CCCN(CCC#N)C(CCC(=O)O)C(=O)O` (stereo not drawn), the T/C (dose: 50.0 mg/kg/injection, schedule: Q01DX005 (ip), vehicle: saline) was 93 % of control, the T/C (dose: 100.0 mg/kg/injection, schedule: Q01DX005 (ip), vehicle: saline) was 100 % of control and the T/C (dose: 200.0 mg/kg/injection, schedule: Q01DX005 (ip), vehicle: saline) was 101 % of control.
For `COC1=C(C)C2CC(=O)OC3CC4C(C)CC(O)C(=O)C4(C)C(C1=O)C32C` (stereo not drawn), the T/C (dose: 0.5 mg/kg/injection, schedule: Q01DX009 (ip), vehicle: saline + alcohol) was 108 % of control, the T/C (dose: 1.0 mg/kg/injection, schedule: Q01DX009 (ip), vehicle: saline + alcohol) was 106 % of control and the T/C (dose: 2.0 mg/kg/injection, schedule: Q01DX009 (ip), vehicle: saline + alcohol) was 106 % of control. For the same compound, the T/C (dose: 4.0 mg/kg/injection, schedule: Q01DX009 (ip), vehicle: saline + alcohol) was 104 % of control and the T/C (dose: 8.0 mg/kg/injection, schedule: Q01DX009 (ip), vehicle: saline + alcohol) was 107 % of control.
In the case of `O=c1[nH]c2c([N+](=O)[O-])cc(Cl)cc2nc1/C=C(\O)c1ccc2ccccc2c1`, the T/C [7] is reported as 98 % of control, the T/C [8] is reported as 90 % of control and the T/C [9] is reported as 99 % of control.
For `CN1C(=O)C23CC4=CC=CC(O)C4N2C(=O)C1(CO)SS3` (stereo not drawn), the T/C (dose: 0.62 mg/kg/injection, schedule: Q04DX002 (ip), vehicle: saline with Tween-80) was 103 % of control, the T/C (dose: 1.25 mg/kg/injection, schedule: Q04DX002 (ip), vehicle: saline with Tween-80) was 104 % of control and the T/C (dose: 2.5 mg/kg/injection, schedule: Q04DX002 (ip), vehicle: saline with Tween-80) was 119 % of control.
`CCN(CC)Cc1c(C)[nH]c2ccc3c(c2c1=O)CCCC3` was tested, and the T/C (dose: 60.0 mg/kg/injection, schedule: Q01DX005 (ip), vehicle: Klucel (hydroxypropylcellulose) (HPC)) was 91 % of control and the T/C (dose: 120.0 mg/kg/injection, schedule: Q01DX005 (ip), vehicle: Klucel (hydroxypropylcellulose) (HPC)) was 93 % of control.
For `CC1(O)Cc2ccc3c(c2C(=O)C1O)C(=O)c1cccc(O)c1C3=O` (stereo not drawn), the T/C (dose: 3.12 mg/kg/injection, schedule: Q01DX005 (ip), vehicle: distilled water + Tween-80 + alcohol) was 98 % of control, the T/C (dose: 6.25 mg/kg/injection, schedule: Q01DX005 (ip), vehicle: distilled water + Tween-80 + alcohol) was 100 % of control and the T/C (dose: 12.5 mg/kg/injection, schedule: Q01DX005 (ip), vehicle: distilled water + Tween-80 + alcohol) was 100 % of control. For the same compound, the T/C (dose: 25.0 mg/kg/injection, schedule: Q01DX005 (ip), vehicle: distilled water + Tween-80 + alcohol) was 100 % of control.
In the case of `COC(=O)CCSCCO`, the T/C [7] is reported as 119 % of control, the T/C [8] is reported as 109 % of control and the T/C [9] is reported as 101 % of control.
`CCCCS(=O)CCC(N)C(=O)O` (stereo not drawn) was tested, and the T/C [7] was 98 % of control, the T/C [8] was 94 % of control and the T/C [9] was 93 % of control.
For `O=C1CCCc2[nH]c3ccc(Cl)cc3c21`, the T/C [1] was 92 % of control, the T/C [2] was 99 % of control and the T/C [3] was 92 % of control.
In the case of `O=[N+]([O-])c1cc(F)cc([N+](=O)[O-])c1O`, the T/C (dose: 12.5 mg/kg/injection, schedule: Q01DX009 (ip), vehicle: Klucel (hydroxypropylcellulose) (HPC)) is reported as 102 % of control, the T/C (dose: 25.0 mg/kg/injection, schedule: Q01DX009 (ip), vehicle: Klucel (hydroxypropylcellulose) (HPC)) is reported as 102 % of control and the T/C (dose: 50.0 mg/kg/injection, schedule: Q01DX009 (ip), vehicle: Klucel (hydroxypropylcellulose) (HPC)) is reported as 112 % of control.
For `CNC(=O)OCC1=C(COC(=O)NC)C2OC1C(C(=O)OC)=C2C(=O)OC`, the T/C (dose: 3.13 mg/kg/injection, schedule: Q01DX009 (ip), vehicle: distilled water + Tween-80) was 91 % of control and the T/C (dose: 12.5 mg/kg/injection, schedule: Q01DX009 (ip), vehicle: distilled water + Tween-80) was 94 % of control.
For `CC(=O)OCCC/C(=C\c1c2ccccc2cc2ccccc12)[N+](=O)[O-]`, the T/C (dose: 60.0 mg/kg/injection, schedule: Q01DX005 (ip), vehicle: suspension in saline) was 100 % of control, the T/C (dose: 120.0 mg/kg/injection, schedule: Q01DX005 (ip), vehicle: suspension in saline) was 102 % of control and the T/C (dose: 240.0 mg/kg/injection, schedule: Q01DX005 (ip), vehicle: suspension in saline) was 97 % of control.
In the case of `C/C(=N\NC(=S)/N=c1\sccn1Cc1ccccc1)c1ccccn1`, the T/C (dose: 6.25 mg/kg/injection, schedule: Q01DX005 (ip), vehicle: saline with Tween-80) is reported as 117 % of control and 123 % of control.
In the case of `NC(c1ccccc1)S(=O)(=O)O` (stereo not drawn), the T/C (dose: 25.0 mg/kg/injection, schedule: Q01DX009 (ip), vehicle: saline) is reported as 121 % of control, the T/C [4] is reported as 121 % of control and the T/C (dose: 66.7 mg/kg/injection, schedule: Q01DX009 (ip), vehicle: saline with Tween-80) is reported as 92 % of control. The T/C (dose: 100.0 mg/kg/injection, schedule: Q01DX001 (ip), vehicle: saline) was 100 % of control, the T/C [10] was 88 % of control and the T/C [5] was 122 % of control. The T/C (dose: 150.0 mg/kg/injection, schedule: Q01DX009 (ip), vehicle: saline with Tween-80) was 91 % of control, the T/C (dose: 200.0 mg/kg/injection, schedule: Q01DX001 (ip), vehicle: saline) was 100 % of control and the T/C [6] was 121 % of control. For the same compound, the T/C (dose: 400.0 mg/kg/injection, schedule: Q01DX001 (ip), vehicle: saline) was 100 % of control.
For `CCCCCCCCCCCCCCCCCC(=O)[O][Hg][c]1ccccc1`, the T/C (dose: 2.5 mg/kg/injection, schedule: Q04DX003 (ip), vehicle: Klucel (hydroxypropylcellulose) (HPC)) was 100 % of control, the T/C (dose: 5.0 mg/kg/injection, schedule: Q04DX003 (ip), vehicle: Klucel (hydroxypropylcellulose) (HPC)) was 100 % of control and the T/C (dose: 10.0 mg/kg/injection, schedule: Q04DX003 (ip), vehicle: Klucel (hydroxypropylcellulose) (HPC)) was 100 % of control.
With `O=C(O)CCC1CC(=O)OC1c1ccccc1` (stereo not drawn) the T/C (dose: 100.0 mg/kg/injection, schedule: Q01DX001 (ip), vehicle: Klucel (hydroxypropylcellulose) (HPC)) was 94 % of control, the T/C (dose: 200.0 mg/kg/injection, schedule: Q01DX001 (ip), vehicle: Klucel (hydroxypropylcellulose) (HPC)) was 94 % of control and the T/C (dose: 400.0 mg/kg/injection, schedule: Q01DX001 (ip), vehicle: Klucel (hydroxypropylcellulose) (HPC)) was 94 % of control.
In the case of `O=C(Cc1ccc(-c2ccccc2)cc1)Nc1ccccn1`, the T/C (dose: 50.0 mg/kg/injection, schedule: Q01DX009 (ip), vehicle: saline with Tween-80) is reported as 99 % of control, the T/C [10] is reported as 108 % of control and the T/C (dose: 200.0 mg/kg/injection, schedule: Q01DX009 (ip), vehicle: saline with Tween-80) is reported as 105 % of control.

From PubChem BioAssay AID330 (DTP/NCI, 2004)
